Source: PubChem BioAssay (NCI)
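Assay format: 96-well plates, 48-hour exposure. Abbreviation: GI50, concentration required for 50% inhibition of growth. TGI is the concentration that stops growth completely.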

How the values were obtained:
Experiment in all cases: NCI anticancer screen, dose series, 48 h
A549 NSCLC = system: A549 NSCLC
SNB-75 CNS = system: SNB-75 CNS
BT-549 breast = system: BT-549 breast
SF-295 CNS = system: SF-295 CNS
SNB-19 CNS = system: SNB-19 CNS
HT29 colon = system: HT29 colon
HL-60(TB) leukemia = system: HL-60(TB) leukemia
NCI-H522 lung = system: NCI-H522 lung
HOP-92 NSCLC = system: HOP-92 NSCLC
OVCAR-8 ovarian = system: OVCAR-8 ovarian
A498 renal = system: A498 renal
RXF 393 renal = system: RXF 393 renal
HCT-116 colon = system: HCT-116 colon
SN12C renal = system: SN12C renal
UACC-257 melanoma = system: UACC-257 melanoma
SF-268 CNS = system: SF-268 CNS
SR leukemia = system: SR leukemia
MDA-MB-231 breast = system: MDA-MB-231 breast
DU-145 prostate = system: DU-145 prostate
SK-MEL-5 melanoma = system: SK-MEL-5 melanoma
OVCAR-3 ovarian = system: OVCAR-3 ovarian
TK-10 renal = system: TK-10 renal
EKVX NSCLC = system: EKVX NSCLC
ACHN renal = system: ACHN renal
NCI-H226 lung = system: NCI-H226 lung
UO-31 renal = system: UO-31 renal
HCT-15 colon = system: HCT-15 colon
SK-OV-3 ovarian = system: SK-OV-3 ovarian
MOLT-4 leukemia = system: MOLT-4 leukemia
CCRF-CEM leukemia = system: CCRF-CEM leukemia
KM12 colon = system: KM12 colon
HCC-2998 colon = system: HCC-2998 colon
U251 CNS = system: U251 CNS
PC-3 prostate = system: PC-3 prostate
NCI/ADR-RES ovarian = system: NCI/ADR-RES ovarian
CAKI-1 renal = system: CAKI-1 renal
MDA-MB-435 = system: MDA-MB-435
T-47D breast = system: T-47D breast
COLO 205 colon = system: COLO 205 colon
786-0 renal = system: 786-0 renal
UACC-62 melanoma = system: UACC-62 melanoma
SK-MEL-28 melanoma = system: SK-MEL-28 melanoma
MCF7 breast = system: MCF7 breast
IGROV1 ovarian = system: IGROV1 ovarian
RPMI-8226 leukemia = system: RPMI-8226 leukemia
LOX IMVI melanoma = system: LOX IMVI melanoma
M14 melanoma = system: M14 melanoma
K-562 leukemia = system: K-562 leukemia
HOP-62 NSCLC = system: HOP-62 NSCLC
NCI-H460 lung = system: NCI-H460 lung
HS 578T breast = system: HS 578T breast
OVCAR-5 ovarian = system: OVCAR-5 ovarian
OVCAR-4 ovarian = system: OVCAR-4 ovarian
NCI-H23 lung = system: NCI-H23 lung
SW-620 colon = system: SW-620 colon
SK-MEL-2 melanoma = system: SK-MEL-2 melanoma
SF-539 CNS = system: SF-539 CNS

With `CCN(Cc1nc2cc(C(F)(F)F)ccc2nc1-c1ccccc1)c1ccc(OC)c(OC)c1` the GI50 (A549 NSCLC) was 0.369 µM, the TGI (A549 NSCLC) was 16.3 µM and the GI50 (SNB-75 CNS) was 24.5 µM. It also gave a TGI (SNB-75 CNS) of 71.7 µM, a GI50 (BT-549 breast) of 13.4 µM and a TGI (BT-549 breast) of 31.7 µM. It also gave a GI50 (SF-295 CNS) of 15.7 µM, a TGI (SF-295 CNS) of 31.8 µM and a GI50 (SNB-19 CNS) of 24.6 µM. The TGI (SNB-19 CNS) was 50.4 µM, the GI50 (HT29 colon) was 14.9 µM and the TGI (HT29 colon) was > 100 µM. It also gave a GI50 (HL-60(TB) leukemia) of 4.46 µM, a TGI (HL-60(TB) leukemia) of 17.6 µM and a GI50 (NCI-H522 lung) of 14.5 µM. The TGI (NCI-H522 lung) was 34 µM, the GI50 (HOP-92 NSCLC) was 15 µM and the TGI (HOP-92 NSCLC) was 30.4 µM. For the same molecule, the GI50 (OVCAR-8 ovarian) was 1.51 µM, the TGI (OVCAR-8 ovarian) was 18.7 µM and the GI50 (A498 renal) was 4.42 µM. The TGI (A498 renal) was 20.7 µM, the GI50 (RXF 393 renal) was 0.312 µM and the TGI (RXF 393 renal) was 9.09 µM. For the same molecule, the GI50 (HCT-116 colon) was 11.1 µM, the TGI (HCT-116 colon) was 23.2 µM and the GI50 (SN12C renal) was 14.9 µM. For the same molecule, the TGI (SN12C renal) was 29.6 µM, the GI50 (UACC-257 melanoma) was 0.0249 µM and the TGI (UACC-257 melanoma) was 0.793 µM. The GI50 (SF-268 CNS) was 26.1 µM, the TGI (SF-268 CNS) was > 100 µM and the GI50 (SR leukemia) was 7.61 µM. The TGI (SR leukemia) was 31.2 µM, the GI50 (MDA-MB-231 breast) was 12.7 µM and the TGI (MDA-MB-231 breast) was 29.2 µM. For the same molecule, the GI50 (DU-145 prostate) was 14.5 µM, the TGI (DU-145 prostate) was 31.9 µM and the GI50 (SK-MEL-5 melanoma) was 13.9 µM. For the same molecule, the TGI (SK-MEL-5 melanoma) was 28 µM, the GI50 (OVCAR-3 ovarian) was 13.1 µM and the TGI (OVCAR-3 ovarian) was 26.5 µM. For the same molecule, the GI50 (TK-10 renal) was 28 µM, the TGI (TK-10 renal) was 82.3 µM and the GI50 (EKVX NSCLC) was 20.1 µM. It also gave a TGI (EKVX NSCLC) of 73.6 µM, a GI50 (ACHN renal) of 16.4 µM and a TGI (ACHN renal) of 44 µM. The GI50 (NCI-H226 lung) was 13.2 µM, the TGI (NCI-H226 lung) was 29 µM and the GI50 (UO-31 renal) was 19.8 µM. For the same molecule, the TGI (UO-31 renal) was 46.2 µM, the GI50 (HCT-15 colon) was 16.3 µM and the TGI (HCT-15 colon) was 34.5 µM. For the same molecule, the GI50 (SK-OV-3 ovarian) was 39.8 µM, the TGI (SK-OV-3 ovarian) was > 100 µM and the GI50 (MOLT-4 leukemia) was 11.8 µM. For the same molecule, the TGI (MOLT-4 leukemia) was 52.1 µM, the GI50 (CCRF-CEM leukemia) was 4.74 µM and the TGI (CCRF-CEM leukemia) was 24.7 µM. For the same molecule, the GI50 (KM12 colon) was 19.9 µM, the TGI (KM12 colon) was 43.6 µM and the GI50 (HCC-2998 colon) was 16.7 µM. The TGI (HCC-2998 colon) was 34.4 µM, the GI50 (U251 CNS) was 6.49 µM and the TGI (U251 CNS) was 19.1 µM. The GI50 (PC-3 prostate) was 7.33 µM, the TGI (PC-3 prostate) was 22 µM and the GI50 (NCI/ADR-RES ovarian) was 29.2 µM. The TGI (NCI/ADR-RES ovarian) was > 100 µM, the GI50 (CAKI-1 renal) was 17.4 µM and the TGI (CAKI-1 renal) was 64.2 µM. It also gave a GI50 (MDA-MB-435) of 16.4 µM, a TGI (MDA-MB-435) of 32.4 µM and a GI50 (T-47D breast) of 18.5 µM. The TGI (T-47D breast) was 61.2 µM, the GI50 (COLO 205 colon) was 31.4 µM and the TGI (COLO 205 colon) was > 100 µM. It also gave a GI50 (786-0 renal) of 15.7 µM, a TGI (786-0 renal) of 30.3 µM and a GI50 (UACC-62 melanoma) of 14.1 µM. For the same molecule, the TGI (UACC-62 melanoma) was 27.7 µM, the GI50 (SK-MEL-28 melanoma) was 25.2 µM and the TGI (SK-MEL-28 melanoma) was 76 µM. The GI50 (MCF7 breast) was 25.9 µM, the TGI (MCF7 breast) was > 100 µM and the GI50 (IGROV1 ovarian) was 16.8 µM. The TGI (IGROV1 ovarian) was 33.7 µM, the GI50 (RPMI-8226 leukemia) was 2.51 µM and the TGI (RPMI-8226 leukemia) was 11.2 µM. It also gave a GI50 (LOX IMVI melanoma) of 14.2 µM, a TGI (LOX IMVI melanoma) of 27.2 µM and a GI50 (M14 melanoma) of 15.4 µM. The TGI (M14 melanoma) was 29.5 µM, the GI50 (K-562 leukemia) was 6.72 µM and the TGI (K-562 leukemia) was 24.6 µM. The GI50 (HOP-62 NSCLC) was 15.1 µM, the TGI (HOP-62 NSCLC) was 29.1 µM and the GI50 (NCI-H460 lung) was 22.2 µM. For the same molecule, the TGI (NCI-H460 lung) was > 100 µM, the GI50 (HS 578T breast) was 11.4 µM and the TGI (HS 578T breast) was 30 µM. The GI50 (OVCAR-5 ovarian) was 21.6 µM, the TGI (OVCAR-5 ovarian) was 46 µM and the GI50 (OVCAR-4 ovarian) was 41.2 µM. For the same molecule, the TGI (OVCAR-4 ovarian) was > 100 µM, the GI50 (NCI-H23 lung) was 13.5 µM and the TGI (NCI-H23 lung) was 34.2 µM. It also gave a GI50 (SW-620 colon) of 16.6 µM, a TGI (SW-620 colon) of 36.5 µM and a GI50 (SK-MEL-2 melanoma) of 16.7 µM. It also gave a TGI (SK-MEL-2 melanoma) of 34.7 µM, a GI50 (SF-539 CNS) of 15.9 µM and a TGI (SF-539 CNS) of 33.1 µM.
